# What was measured:
# [1] = test system: SKOv3, OVCAR8, HCC5032, or MDA-MB-231 cells; assay: DNA damage: γ-H2AX staining and comet assay with olaparib; assay type: cell-based; conditions: SKOv3, OVCAR8, HCC5032, MDA-MB-231
# Protocol: Cells were trypsinized and resuspended at 2×10^5/mL in cold PBS without Ca^2+ and Mg^2+. Cells were mixed with pre-warmed comet agarose at 1:10 (v/v) ratio. 10 uL of cell agarose mixture was plated onto comet slides pre-coated with 75 uL of agarose and chilled at 4° C. for 15 min to set. Cells were lysed in 25 mL of Lysis buffer at 4° C. for 2 hrs and washed with alkaline solution (pH 10). Comet slides were electrophoresed in cold alkaline solution at 20V for 15 min. Slides were rinsed with water and dried in 70% ethanol for 5 min. Slides were then stained with Vista Green DNA dye and viewed using an Olympus epifluorescence microscope with a FITC filter. Images were captured using a 20× objective. […] Experiments were run in triplicate and Olive Tail Moment was measured using CaspLab1.2.3β2 software (CaspLab.com). Olive Tail Moment=Tail DNA %×Tail Length. 50-200 Cells were measured for each treatment and experiments were repeated twice independently to ensure reproducibility.
# Cells on 22×22 mm coverslips were fixed in 4% formaldehyde in PBS (Thermo Fisher, J19943-K2) and permeabilized with 0.1% Triton X-100 (Sigma, X100) in PBS for 15 min. Cells were blocked with 5% BSA in PBS for 30 min and then stained with antibody overnight at 4° C., followed by secondary antibody and DAPI for 1 hr. […] After 24-hrs incubation, cells were fixed in 4% formaldehyde in PBS. Cells were stained as described above. […] DNA damage visualized by γ-H2AX staining was evaluated by counting nuclear γ-H2AX puncta in each cell. […] After 8 hrs incubation, cells were fixed in 4% formaldehyde in PBS. Cells were stained as described above. Images were captured using an Olympus IX71 microscope and nuclear γ-H2AX puncta in each cells were counted using with Olympus CellSens Dimension software. HDAC5 (CST20458) and γ-H2AX (CST2577) antibodies were purchased from Cell Signaling Technology. Experiments were repeated twice independently to ensure reproducibility and 50-200 cells were counted for each treatment.
# [2] = test system: HDAC4 (Ser246)/HDAC5 (Ser256)/HDAC7 (Ser155); assay: Western analysis of HDAC4/5/7 phosphorylation; assay type: cell-based; conditions: 4 μM, 24 hrs; nearly all the cell lines tested
# Protocol: To identify the mechanism(s) by which SIK2 inhibition decreases DNA DBS repair, it was tested whether SIK2 inhibitors decrease the phosphorylation of class IIa HDACs, which control its nuclear cytoplasmic shuttling and consequently its association with DNA. […] Next, it was investigated whether SIK2 inhibitors increase nuclear localization of HDAC5. SIK2 inhibition increased nuclear localization of HDAC5 judged by increasing nuclear florescence intensity (FIG. 7B and FIG. 8A) and the nuclear fraction of HDAC5 expression (FIG. 8B). […] Therefore, it was hypothesized that SIK2 inhibition may block MEF transcription factor activity. […] Next, it was examined whether SIK2 regulation of MEF2 activity was HDAC4/5-dependent, increasing its binding to MEF2D protein. […] These observations are consistent with the hypothesis that SIK2 inhibition increases nuclear localization of HDAC4/5, blocking MEF2 transcription (FIG. 8E).
# Cells were incubated with and without treatment for the intervals indicated and then cells were incubated in lysis buffer (50 mM Hepes, pH 7.0, 150 mM NaCl, 1.5 mM MgCl2, 1 mM EGTA, 10, 10% glycerol, 1% Triton X-100, 50 mM NaF, 1 mM Na3VO4 1 mM PMSF, 10 μg/mL leupeptin and10 μg/mL aprotinin) on ice for 30 min. […] The protein concentration was assessed using a bicinchoninic acid (BCA) protein assay (Thermo Scientific, 23228). […]
# [3] = test system: MDA-MB-231 orthotopic xenografts; assay: MDA-MB-231 orthotopic xenografts; assay type: in vivo, mice
# Protocol: To evaluate additive or synergistic interactions, a combination Index (CI value) was calculated with CalcuSyn software.
# SIK1 = SIK1 (Homo sapiens, UniProt P57059); assay: SIK isoform dose response; assay type: biochemical
# Sequence of SIK1 (P57059 whole entry, canonical isoform): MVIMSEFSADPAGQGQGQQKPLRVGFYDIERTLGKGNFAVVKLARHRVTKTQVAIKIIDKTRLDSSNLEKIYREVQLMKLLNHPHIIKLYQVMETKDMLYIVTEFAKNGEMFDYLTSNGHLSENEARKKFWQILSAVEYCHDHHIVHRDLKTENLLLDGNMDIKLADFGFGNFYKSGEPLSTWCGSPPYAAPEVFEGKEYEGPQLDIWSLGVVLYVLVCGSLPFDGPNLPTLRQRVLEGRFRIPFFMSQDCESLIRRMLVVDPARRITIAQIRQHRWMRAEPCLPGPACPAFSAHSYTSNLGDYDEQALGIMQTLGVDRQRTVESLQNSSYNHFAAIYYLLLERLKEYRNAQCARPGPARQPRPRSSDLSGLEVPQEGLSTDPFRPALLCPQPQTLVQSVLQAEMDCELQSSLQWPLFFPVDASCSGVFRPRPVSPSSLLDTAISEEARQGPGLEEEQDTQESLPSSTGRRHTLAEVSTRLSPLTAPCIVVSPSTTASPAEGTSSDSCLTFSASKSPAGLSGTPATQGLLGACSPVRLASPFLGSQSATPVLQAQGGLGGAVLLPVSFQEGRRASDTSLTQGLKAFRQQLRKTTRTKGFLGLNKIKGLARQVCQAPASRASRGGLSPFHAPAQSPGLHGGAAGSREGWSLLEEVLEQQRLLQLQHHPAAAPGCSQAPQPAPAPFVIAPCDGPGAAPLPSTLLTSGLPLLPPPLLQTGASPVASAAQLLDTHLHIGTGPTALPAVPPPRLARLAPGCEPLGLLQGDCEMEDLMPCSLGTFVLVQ
compound,measurement,setting,value
"COc1c(F)cc(F)cc1-c1c[nH]c2ncc(-c3cnn(C4CCN(S(C)(=O)=O)CC4)c3)cc12 [Compound B, 3-(3,5-difluoro-2-methoxyphenyl)-5-(1-(1-(methylsulfonyl)piperidin-4-yl)-1H-pyrazol-4-yl)-1H-pyrrolo[2,3-b]pyridine]",levels of γ-H2AX and tailed DNA,[1],modestly increased
same,phosphorylation of HDAC4/HDAC5/HDAC7,[2],significantly decreased
same,xenograft growth and survival,[3],inhibited xenograft growth and prolonged the survival
same,IC50,SIK1,351 nM

# — patent US20220296583A1, “COMPOSITIONS AND METHODS FOR TREATMENT OF OVARIAN AND BREAST CANCER” (Board of Regents, The University of Texas System, priority 2021, published 2022)
